{
  "source": "ChEMBL document CHEMBL4304749",
  "about": "“Covalent Inhibitors of Protein-Protein Interactions Targeting Lysine, Tyrosine, or Histidine Residues” (J Med Chem, 2019)",
  "key": {"[1]": {"assay": "Half-life in 50 mM phosphate buffer of pH 7.5 at 37 degreeC by 1H NMR method", "assay_type": "physicochemical", "settings": "for half-life: phosphate buffer; for t1/2: buffer"}, "[2]": {"assay": "Half-life of the compound at pH 7.2 by NMR spectroscopy", "assay_type": "physicochemical"}, "[3]": {"assay": "Stability in mouse plasma at 200 uM by LC-MS method", "assay_type": "ADME, cell-free"}, "[4]": {"assay": "Aqueous stability of the compound in simulated gastric fluid at pH 1.5 by NMR spectroscopy"}, "[5]": {"assay": "Half-life in mouse plasma at 200 uM by LC-MS method", "assay_type": "ADME, cell-free"}, "[6]": {"assay": "Drug degradation in mouse plasma at 200 uM after 40 min by LC-MS method", "assay_type": "ADME, cell-free", "settings": "read-out: Drug degradation"}, "[7]": {"assay": "Aqueous stability of the compound pH 7.2 by NMR spectroscopy", "assay_type": "physicochemical", "settings": "buffer"}, "[8]": {"target": "T1, E3 ubiquitin-protein ligase XIAP (Homo sapiens, UniProt P98170)", "T1 sequence (P98170 whole entry)": "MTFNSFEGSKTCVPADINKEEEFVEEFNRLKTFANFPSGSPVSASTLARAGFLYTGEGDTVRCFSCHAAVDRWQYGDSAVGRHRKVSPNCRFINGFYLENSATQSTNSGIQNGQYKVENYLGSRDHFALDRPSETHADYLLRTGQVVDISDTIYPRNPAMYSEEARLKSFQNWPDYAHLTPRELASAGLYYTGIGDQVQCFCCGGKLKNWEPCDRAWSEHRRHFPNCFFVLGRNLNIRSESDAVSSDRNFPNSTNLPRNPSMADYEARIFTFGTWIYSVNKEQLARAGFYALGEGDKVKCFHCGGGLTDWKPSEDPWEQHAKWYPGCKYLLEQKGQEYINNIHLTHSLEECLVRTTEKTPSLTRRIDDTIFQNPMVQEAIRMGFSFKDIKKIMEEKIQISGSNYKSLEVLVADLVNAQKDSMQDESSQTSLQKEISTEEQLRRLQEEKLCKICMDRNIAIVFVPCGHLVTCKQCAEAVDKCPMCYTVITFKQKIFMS"}, "[9]": {"target": "T1, E3 ubiquitin-protein ligase XIAP", "remark": "listed apart in the source"}, "SK-OV-3 [10]": {"test_system": "SK-OV-3", "assay": "Induction of apoptosis in human SKOV3 cells assessed caspase-3 activation after 24 hrs by IncuCyte S3 live-cell analysis", "assay_type": "functional, cell-based", "settings": "SK-OV-3, 24 h"}, "SK-OV-3 [11]": {"test_system": "SK-OV-3", "assay": "Induction of apoptosis in human SKOV3 cells assessed caspase-3 activation after 48 hrs by IncuCyte S3 live-cell analysis", "assay_type": "functional, cell-based", "settings": "SK-OV-3, 48 h"}, "[12]": {"target": "T1, E3 ubiquitin-protein ligase XIAP", "assay": "biochemical"}, "[13]": {"target": "T1, E3 ubiquitin-protein ligase XIAP", "assay": "biochemical", "remark": "listed apart in the source"}},
  "note": "Square brackets hold non-standard residues; d marks the D form. Peptide text beside a SMILES is read from it. Tyr(SO2F) = N[C@@H](Cc1ccc(OS(=O)(=O)F)cc1)C(=O)O; NMeA = CN[C@@H](C)C(=O)O",
  "data": [
    {"compound": "CN[C@@H](C)C(=O)N[C@@H](CNC(=O)c1ccc(S(=O)(=O)F)cc1)C(=O)N1CCC[C@H]1C(=O)N[C@@H](Cc1ccccc1)C(N)=O", "values": [
      {"measurement": "half-life", "setting": "[1]", "value": 30, "unit": "min"},
      {"measurement": "half-life", "setting": "[2]", "value": 30, "unit": "min"},
      {"measurement": "Stability", "setting": "[3]", "value": "Unstable"},
      {"measurement": "Stability", "setting": "[4]", "value": "Stable"}
    ]},
    {"compound": "CN[C@@H](C)C(=O)N[C@@H](Cc1ccc(S(=O)(=O)O)cc1)C(=O)N1CCC[C@H]1C(=O)N[C@@H](Cc1ccccc1)C(N)=O", "values": [
      {"measurement": "t1/2", "setting": "[1]", "value": "> 5", "unit": "h"}
    ]},
    {"compound": "CN[C@@H](C)C(=O)N[C@@H](Cc1ccc(OS(=O)(=O)F)cc1)C(=O)N1CCC[C@H]1C(=O)N[C@@H]1CCc2c(F)cccc21", "values": [
      {"measurement": "half-life at 200 µM", "setting": "[5]", "value": "> 120", "unit": "min"}
    ]},
    {"compound": "CN[C@@H](C)C(=O)N[C@@H](CNCc1ccc(S(=O)(=O)F)cc1)C(=O)N1CCC[C@H]1C(=O)N[C@@H]1CCc2c(F)cccc21", "values": [
      {"measurement": "metabolised at 40 min, 200 µM", "setting": "[6]", "value": 100, "unit": "%"},
      {"measurement": "half-life at 200 µM", "setting": "[5]", "value": 15, "unit": "min"}
    ]},
    {"compound": "CN[C@@H](C)C(=O)N[C@@H](CNCc1ccc(S(=O)(=O)F)cc1)C(=O)N1CCC[C@H]1C(=O)N[C@@H](Cc1ccccc1)C(N)=O", "values": [
      {"measurement": "half-life", "setting": "[1]", "value": 150, "unit": "min"},
      {"measurement": "Stability", "setting": "[7]", "value": "Stable"},
      {"measurement": "Stability", "setting": "[4]", "value": "Stable"}
    ]},
    {"compound": "CN[C@@H](C)C(=O)N[C@@H](Cc1ccc(OS(=O)(=O)F)cc1)C(=O)N1CCC[C@H]1C(=O)NC1Cc2ccccc2C1", "values": [
      {"measurement": "half-life at 200 µM", "setting": "[5]", "value": "> 120", "unit": "min"}
    ]},
    {"compound": "CC(C)[C@H](NC(=O)[C@H](C)N)C(=O)N1CCC[C@H]1C(=O)N[C@@H](Cc1ccccc1)C(=O)O", "note": "(H-AVPF-OH)", "values": [
      {"measurement": "ΔTm", "setting": "[8]", "value": 5.5, "unit": "°C"},
      {"measurement": "half-life", "setting": "[1]", "value": "> 300", "unit": "min"},
      {"measurement": "ΔTm", "setting": "[9]", "value": 17, "unit": "°C"}
    ]},
    {"compound": "CN[C@@H](C)C(=O)N[C@@H](Cc1ccc(OS(=O)(=O)F)cc1)C(=O)N1CCC[C@H]1C(=O)N[C@@H](Cc1ccccc1)C(N)=O", "note": "(H-[NMeA][Tyr(SO2F)]PF-NH2)", "values": [
      {"measurement": "t1/2", "setting": "[1]", "value": "> 5", "unit": "h"},
      {"measurement": "Stability", "setting": "[7]", "value": "Stable"},
      {"measurement": "Stability", "setting": "[4]", "value": "Stable"}
    ]},
    {"compound": "CN[C@@H](C)C(=O)N[C@H](C(=O)N1CCC[C@H]1C(=O)Nc1snnc1-c1ccccc1)C1CCCCC1", "note": "[GDC-0152]", "values": [
      {"measurement": "EC50", "setting": "SK-OV-3 [10]", "value": 3, "unit": "nM"},
      {"measurement": "ΔTm", "setting": "[8]", "value": 15, "unit": "°C"},
      {"measurement": "half-life at 200 µM", "setting": "[5]", "value": 60, "unit": "min"},
      {"measurement": "EC50", "setting": "SK-OV-3 [11]", "value": 2.5, "unit": "nM"},
      {"measurement": "ΔTm", "setting": "[9]", "value": 19.5, "unit": "°C"},
      {"measurement": "IC50", "setting": "[12]", "value": 21, "unit": "nM"},
      {"measurement": "IC50", "setting": "[13]", "value": 21, "unit": "nM"}
    ]},
    {"compound": "CN[C@@H](C)C(=O)N[C@H](C(=O)N1CCC[C@H]1c1nc(C(=O)c2ccc(F)cc2)cs1)C1CCCCC1", "note": "[LCL-161]", "values": [
      {"measurement": "EC50", "setting": "SK-OV-3 [10]", "value": 3, "unit": "nM"},
      {"measurement": "half-life at 200 µM", "setting": "[5]", "value": "> 120", "unit": "min"},
      {"measurement": "EC50", "setting": "SK-OV-3 [11]", "value": 1, "unit": "nM"}
    ]}
  ]
}
